Measured values as given in US20240216317A1, “COMPOSITION FOR PREVENTING, AMELIORATING OR TREATING INFLAMMATORY BOWEL DISEASE COMPRISING COMPOUND ISOLATED FROM ISODON EXCISUS AS EFFECTIVE COMPONENT” (HEALINNOLS INC., priority 2022, published 2024).

Columns and labels:
RIPK2 = target: T1, RIPK2 (Homo sapiens, UniProt O43353); assay: Inhibitory activity on RIPK2 phosphorylation using Western blot in Caco-2 cells; format: cell-based; details: FIG. 1
T1 construct: Caco-2 cells were dissolved by adding buffer solution for degradation; endogenous in cells; host or cells: Caco-2
Procedure: Caco-2 cells were adjusted to have density of 2×10^5 cells/ml. Suspension of the cells (0.5 ml) was aliquoted in apical side membrane phase of a transwell insert 12-well plate. To the basolateral side phase, 1.5 ml of culture medium were added. While replacing the medium with fresh one, once per 2 or 3 days, culture was continued for 21 days approximately, i.e., till to have cell division and suitable TEER (transepithelial electrical resistance) value of monolayer.
For measuring the electric resistance (TEER value, Ω·cm^2) between the apical side and basolateral side, EVOM resistance meter (EVOM2, WPI) was employed.
Once the TEER value of Caco-2 cells is 200 Ω·cm^2 or higher, MDP inside the insert was treated for 24 hours with the compound represented by Chemical formula 1 of the present invention. After washing Caco-2 cells inside the insert with 1×PBS, they were treated with trypsin. After centrifuge and washing with cold 1×PBS, Caco-2 cells were dissolved by adding buffer solution for degradation (50 mM Tris-HCl (pH 8.0), 5 mM EDTA, 15 mM NaCl, 1% NP-40, 1 mM PMSF) followed by centrifuge for 20 minutes at 12,000 rpm, 4° C. Only the supernatant was then collected and protein quantification was carried out by using BCA protein assay kit. […]

IL-1β = IL-1β mRNA expression (qPCR) in zebra fish animal model of DSS-induced inflammatory bowel disease; format: in vivo, zebra fish (Danio rerio: AB); details: zebra fish larvae, 0.5% DSS, 5 hours treatment; Chemical formula 1 0.3 μM and 1 μM; FIG. 5
Procedure: As a zebra fish animal model of inflammatory bowel disease, wild-type zebra fish (Danio rerio: AB) was used, which was kept in an exclusive breeding facility at conditions including light/dark cycle of 14 hours/10 hours and temperature of 28° C. All the animal experiments were carried out according to the protocol of Ethics Committee for Animal Expectation, Healinno-LS (Registration No.: AEC-20210720-0001), and all the materials were sterilized first before they are used for experiment.
According to a treatment with 0.5% DSS (dextran sulfate sodium, M.W. 36,000-50,000, #160110, MP), which induces “ulcerative colitis” as inflammatory bowel disease by creating a damage in colonic epithelial cells, a zebra fish was induced to have inflammatory bowel disease. Then, by threating the zebra fish with the compound represented by Chemical formula 1 of the present invention at different concentrations (0.3 μM and 1 μM), inhibitory activity on inflammatory bowel disease was examined. […]
The zebra fish larvae which have been treated with the compound represented by Chemical formula 1 of the present invention were then added with TRIzol reagent (300 μl), and then homogenized by using a tissue homogenizer (G20, GINKO). […] Purity and concentration were measured by using a microplate reader (FLUOstar omega, BMG Labtech), and the extracted total RNA was kept at −80° C. […]

T1 sequence (O43353 whole entry): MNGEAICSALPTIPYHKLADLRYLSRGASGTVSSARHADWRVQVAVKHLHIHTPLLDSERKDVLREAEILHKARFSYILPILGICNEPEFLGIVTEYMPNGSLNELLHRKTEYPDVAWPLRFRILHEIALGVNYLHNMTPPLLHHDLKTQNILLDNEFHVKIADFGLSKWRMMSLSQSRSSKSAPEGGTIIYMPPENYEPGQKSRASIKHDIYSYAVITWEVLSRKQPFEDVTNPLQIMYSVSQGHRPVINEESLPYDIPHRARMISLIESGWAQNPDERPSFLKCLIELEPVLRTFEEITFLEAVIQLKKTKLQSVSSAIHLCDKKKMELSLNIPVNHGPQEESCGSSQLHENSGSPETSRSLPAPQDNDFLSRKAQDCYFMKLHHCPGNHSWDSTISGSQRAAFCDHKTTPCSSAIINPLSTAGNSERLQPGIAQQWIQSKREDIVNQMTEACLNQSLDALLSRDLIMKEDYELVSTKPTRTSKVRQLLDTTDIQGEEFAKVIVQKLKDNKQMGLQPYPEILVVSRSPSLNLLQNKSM

COC(=O)C[C@H](OC(=O)/C=C/c1ccc(O)c(O)c1)c1ccc(O)c(O)c1 [Compound 1, 3-[3,4-dihydroxyphenyl]acrylic acid 1-[3,4-dihydroxyphenyl]-2-methoxycarbonylethyl ester]
inhibitory activity on RIPK2 phosphorylation relative to gefitinib (positive control) (RIPK2): at least 2 times | inhibition of activation of RIPK2 (phosphorylation) (RIPK2; MDP, 24 hours treatment): can inhibit the activation of RIPK2 | expression amount of IL-1β compared to DSS model group (IL-1β): statistically significantly lower

Nc1ccc(O)c(C(=O)O)c1 [Compound 5-ASA, 5-aminosalicylic acid, reference compound]
expression amount of IL-1β compared to DSS model group (IL-1β): statistically significantly lower
